Laboratory results from patent publication US20230364079A1, “COMPOUND AS BRAIN-PERMEABLE BTK OR HER2 INHIBITOR, PREPARATION METHOD THEREFOR, AND USE THEREOF” (CHENGDU HYPERWAY PHARMACEUTICALS CO., LTD., priority 2020, published 2023).
Read-outs that look alike come from different tables or passages of the source.

What was measured:
[1] = test system: TMD8 cell proliferation; assay: In vitro cell proliferation inhibitory activity test (CTG), TMD8; assay type: cell-based, human; details: TMD8 cells, 72 h
Procedure: Test Example 4: In Vitro Cell Proliferation Inhibitory Activity Test
Cells were cultured in 1640 medium, added with 10% inactivated FBS and 1% double antibiotics, and cultured at 37° C. and 5% CO2.
(1) Cells were routinely cultured until the cell density was 80%-90%, and the cells were harvested when their number reached the requirement.
(2) Cells were resuspended with corresponding culture medium, counted, and prepared into cell suspension at appropriate density.
(3) The cell suspension was added to a 96-well plate, 100 µL per well.
(4) Cells were cultured overnight in a 37° C., 5% CO2 incubator.
(1) The compounds to be tested were diluted with DMSO to make a stock solution with a final concentration of 20 mM for later use.
(2) The stock solution was diluted 10 times from 20 mM to 2 mM with DMSO, and then diluted 3 times from 2 mM to 9 concentrations.
(3) The blank control wells were cells plus 0.5% DMSO, as high-reading control wells.
(4) Wells with no cells and only medium were used as low-reading control wells.
4: Cell Treatment With Compound
(1) 24 h after the cells were plated, the compounds acted alone, and 99 µL of growth medium was added to each well, followed by 1 µL of the compound prepared in step 3. The plate was shaken gently to mix uniformly, and then placed in a 37° C., 5% CO2 incubator.
(2) The cell plate was placed in an incubator for 72 h.
5: Detection by CTG Method
(1) The cell plate to be tested was placed at room temperature for 30 min, and 100 µL of medium was discarded from each well.
(2) 100 µL of CTG reagent (CelltiterGlo kit) was added to each well, placed on a fast shaker for 2 min, and stood at room temperature in the dark for 30 min.
(3) The chemiluminescent signal value was read with the Envision instrument.
IC50 was calculated by using GraphPad Prism 8 software. The IC50 (half inhibitory concentration) of the compound was derived using the following nonlinear fitting formula, and the results are shown in the following table: […]

[2] = Liver microsome metabolic stability test, human; assay type: in vitro ADME; details: for half-life: liver microsomes, read-out: T½
Procedure: (§1) 1: To the sample wells of T0, T5, T10, T20, T30, T60 and NCF60, 10 µL of the test or reference working solution and 80 µL of microsome working solution (hepatic microsome with a protein concentration of 0.5 mg/mL) were added, and to Blank60 well, only the microsome working solution was added. Then samples of the Blank60, T5, T10, T20, T30 and T60 other than T0 and NCF60 were placed in a 37° C. water bath and pre-incubated for about 10 min.
(§2) 2: To the T0 sample well, 300 µL of stop solution (containing 200 ng/mL tolbutamide and 200 ng/mL labetalol in acetonitrile solution) was added first, followed by 10 µL of NADPH regeneration system working solution.
(§3) 3: After the pre-incubation of Blank60, T5, T10, T20, T30 and T60 incubation plates, 10 µL of NADPH regeneration system working solution was added to each sample well to start the reaction, and 10 µL of 100 mM potassium phosphate buffer was added to the NCF60 sample well.
(§4) 4: After incubation for an appropriate time (such as 5, 10, 20, 30 and 60 min), to each test sample well and control well of the Blank60, T5, T10, T20, T30, T60 and NCF60 plates, 300 µL of stop solution was added to terminate the reaction.
(§5) 5: All sample plates were shaken to mix well and centrifuged at 4000 rpm for 20 min, and 100 µL of the supernatant of the test sample or control sample was taken and diluted with 300 µL of pure water for LC-MS/MS analysis.
(§6) 6: Data analysis: T½ and CLint(mic) (µL/min/mg) values were calculated according to the first-order elimination kinetics. The first-order elimination kinetics equation was: […]

[3] = target: BTK mutation-type C481S kinase (Homo sapiens (Human), UniProt Q06187, C481S); assay: BTK-C481S kinase activity inhibition test in vitro (Caliper EZ Reader); assay type: biochemical
Procedure: In the tests on the activity of inhibiting BTK and HER2 kinase in vitro in the examples of the present disclosure, powder of the compound was dissolved in 100% DMSO to prepare a 10 mM stock solution and stored at-20° C. in the dark. […] In addition, the compounds were subjected to experiments such as liver microsome metabolic stability, rat PK, rat brain penetration rate, and drug efficacy model in the examples of the present disclosure.
Compound powders were dissolved in 100% DMSO to make 10 mM stock solutions, which were stored at -20° C. in the dark.
2: Kinase Reaction Process
(1) Preparation of 1 × Kinase buffer.
(5) After centrifugation at 1000 rpm for 30 seconds, the reaction plate was shaken to mix well and incubated at room temperature for 10 min.
(6) A 5/3-fold final concentration of a mixed solution of ATP and Kinase substrate 2 was prepared with 1 × Kinase buffer.
(7) 15 µL of the mixed solution of ATP and substrate with 5/3-fold final concentration was added to start the reaction.
(8) The 384-well plate was centrifuged at 1000 rpm for 30 seconds, shaken to mix well, and incubated at room temperature for 10 min.
(9) 30 µL of a stop solution was added to stop the kinase reaction, and after centrifugation at 1000 rpm for 30 seconds, the plate was shaken to mix well;
(10) The conversion rate was read with Caliper EZ Reader.
where Conversion%_sample indicates the conversion rate reading of the sample; Conversion%_min is the average reading of the negative control wells, representing the conversion rate reading of the wells without enzyme activity; Conversion%_max is the average reading of the ratio of the positive control wells, representing the conversion rate reading of the wells without compound inhibition.
Dose-Response Curve Fitting
With the log value of the concentration as the X-axis, and the percentage inhibition rate as the Y-axis, the dose-effect curve was fitted using the log(inhibitor) vs. response-Variable slope of the analysis software GraphPad Prism 5, so as to determine the IC50 value of each compound on the enzyme activity.
The calculation formula was: […]

[4] = target: BTK wild-type kinase (Homo sapiens (Human), UniProt Q06187); assay: BTK kinase activity inhibition test in vitro (Caliper EZ Reader); assay type: biochemical
In short: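 Compound (10 mM DMSO stock) preincubated with kinase 10 min at room temperature, then ATP plus kinase substrate 2 added, 10 min reaction at room temperature before stop. Substrate conversion read by Caliper mobility shift; inhibition normalised to no-enzyme and no-compound controls, IC50 by variable-slope log(inhibitor) fit.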

[5] = Pharmacokinetic test, oral, SD rats; assay type: in vivo; details: oral 10 mg/kg, plasma; for half-life: read-out: T½ (converted)
In short: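 Male/female status unstated; SD rats (3 per group) dosed orally at 10 mg/kg after overnight fast, refed 4 h post-dose. Plasma from serial blood draws stored at -20° C, protein-precipitated with internal standard solution and quantified by LC-MS/MS.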

[6] = Liver microsome metabolic stability test, rat; assay type: in vitro ADME; details: for half-life: liver microsomes, read-out: T½
Procedure: as §1, §2, §3, §4, §5, §6

[7] = test system: DOHH-2-luc tumor cells in the mouse brain; assay: DOHH-2-Luc intracerebral tumor drug efficacy model test; assay type: in vivo; details: for inhibitory effect against the tumor compared with Tirabrutinib: DOHH2 tumor model in the mouse brain, same dose of 30 mg/kg (BID), FIG. 3; for tumor size in the brain by fluorescence image: DOHH-2-Luc intracerebral model, same dose, FIG. 4; for side effects: mouse, 30 mg/kg (BID), after 21 days of administration
Procedure: Test Example 8: DOHH-2-Luc Intracerebral Tumor Drug Efficacy Model Test
DOHH-2-luc tumor cells were cultured in vitro with RPMI 1640 medium containing 10% fetal bovine serum and 500 ng/mL puromycin in a 37° C., 5% CO2 incubator. […] Tumor cells in logarithmic growth phase were used for inoculation of tumors in vivo.
2. Inoculation of Tumor Cell and Grouping
After the animal was anesthetized by intramuscular injection of Zoletil, it was fixed on the operating table in a prone position. The skin on the top of the head was disinfected with iodine and 75% alcohol respectively, and the skin was cut about 0.5 cm along the midline of the head to expose the coronal and sagittal lines. Being located about 0.5-1.0 mm above the coronal line and about 2 mm to the right of the sagittal line by using a brain locator, a hole was drilled with a 1 mL syringe needle. The micro-injector was inserted vertically to a depth of 3 mm at the location, slowly (about 1 min) injected with 3 × 10^5 DOHH-2-luc tumor cells /2 µL suspension and kept for 1 min. After pulling out the needle, the needle hole was quickly sealed with bone wax, and the wound was sutured with a stapler. About the 7th day after tumor inoculation, the animals were randomly divided into 5 groups according to the body weight of the animals and the optical signal intensity of the tumor site, with 5 animals in each group.
The mice were imaged 1-2 times a week according to their state using the small animal in vivo imaging system IVIS Lumina III (Perkin Elmer). The bioluminescence imaging (BLI, unit: photons/s) signal intensity at the tumor cell inoculation site of mouse was monitored as the main indicator for evaluating tumor growth and drug efficacy. The specific operation is as follows:
The mice were intraperitoneally injected with D-luciferin (15 mg/mL, 5 µL/g according to the body weight of the experimental animal), and then inhaled anesthetized with 1%-2% isoflurane. 10 min after the injection of D-luciferin, the animals were imaged with IVIS Lumina III. The data were analyzed and processed using Living Image software (Perkin Elmer), and the optical signal intensity in ROI (regions of interest) of each animal was calculated.

[8] = test system: TMD8 mouse subcutaneous xenograft tumor; assay: TMD8 pharmacodynamic model test (mouse subcutaneous xenograft tumor); assay type: in vivo; details: for inhibitory effect against the tumor compared with Tirabrutinib: same dose of 20 mg/kg, FIG. 2
Procedure: Test Example 7: TMD8 Pharmacodynamic Model Test
Human diffuse large B-cell lymphoma TMD8 cells were monolayer-cultured in vitro in RPMI1640 medium with 10% fetal bovine serum, 100 U/mL penicillin and 100 µg/mL streptomycin, in a 37° C., 5% CO2 incubator. Routine digestion with trypsin-EDTA was performed twice a week for passaging. When the cell density was 80%-90% and the number reached the requirement, cells were harvested, counted and inoculated. 0.2 ml (1×10^7 cells) of TMD8 cells (added with matrigel at a volume ratio of 1:1) were subcutaneously inoculated on the right back of each mouse. The mice were administered in groups when the average tumor volume reached about 137 mm^3. Tumor diameters were measured twice a week with vernier calipers. The tumor volume was calculated by the formula V = 0.5 a × b^2, where a and b represent the long and short diameters of the tumor, respectively.

[9] = dog PK experiments; cited from earlier work
[10] = mice; cited from earlier work

Sequence of BTK wild-type kinase (Q06187 whole entry): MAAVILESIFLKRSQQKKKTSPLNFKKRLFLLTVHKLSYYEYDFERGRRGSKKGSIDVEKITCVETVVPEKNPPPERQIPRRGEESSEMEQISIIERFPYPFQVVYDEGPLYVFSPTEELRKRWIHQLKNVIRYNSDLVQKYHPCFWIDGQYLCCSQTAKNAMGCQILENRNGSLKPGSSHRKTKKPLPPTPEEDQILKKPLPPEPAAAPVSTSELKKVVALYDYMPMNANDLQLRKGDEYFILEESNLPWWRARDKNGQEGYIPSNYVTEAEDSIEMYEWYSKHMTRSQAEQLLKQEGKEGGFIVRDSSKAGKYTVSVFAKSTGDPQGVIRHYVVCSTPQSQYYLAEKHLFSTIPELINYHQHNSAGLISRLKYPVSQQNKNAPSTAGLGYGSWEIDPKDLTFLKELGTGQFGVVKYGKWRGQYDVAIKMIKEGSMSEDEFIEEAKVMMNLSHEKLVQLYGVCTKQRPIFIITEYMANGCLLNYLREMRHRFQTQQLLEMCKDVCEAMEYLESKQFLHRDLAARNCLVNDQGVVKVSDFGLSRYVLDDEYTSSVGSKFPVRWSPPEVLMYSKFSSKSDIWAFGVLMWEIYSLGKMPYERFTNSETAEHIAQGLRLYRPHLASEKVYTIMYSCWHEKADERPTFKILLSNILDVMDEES
Sequence of BTK mutation-type C481S kinase (Q06187 whole entry C481S): as the sequence (Q06187 whole entry) above, with C481S counted along it

SMILES | IC50 [1] | %Remaining (60 min) [2] | IC50 [3] | IC50 [4] | Cl [5] | %Remaining (60 min) [6] | inhibitory effect against the tumor compared with Tirabrutinib [7] | tumor size in the brain by fluorescence image [7] | side effects [7] | inhibitory effect against the tumor compared with Tirabrutinib [8] | half-life ([2]; 0.5 mg/mL protein) | AUC(0-inf) ([5]; rat) | Cmax ([5]; rat, read-out: Cmax) | half-life ([5]; rat) | half-life ([6]; 0.5 mg/mL protein) | also measured
Nc1nccn2c([C@@H]3CC[C@H](CO)OC3)nc(-c3ccc(C(=O)Nc4ccccn4)cc3)c12 (single isomer, unassigned) [Compound 2-A-P1] | 61.9 nM | 122.5% | < 5 nM | < 5 nM | 2.18 mL/min/kg | 95.5% | – | – | – | – | – | – | – | – | – | CLint [2]: <9.6 µL/min/mg; T½ ([2]; 0.5 mg/mL protein): >2.42 h; AUC(0-∞) [5]: 77004 ng·h/mL; Cmax [5]: 25188 ng/mL; T½ [5]: 2.21 h; CLint [6]: <9.6 µL/min/mg; T½ ([6]; 0.5 mg/mL protein): >2.42 h
Nc1nccn2c(C3CCC(CO)OC3)nc(-c3ccc(C(F)(F)c4ccccc4)cc3)c12 (single isomer, unassigned) [Compound 111-P1] | 71.9 nM | – | < 5 nM | < 5 nM | – | – | significantly better inhibitory effect against the tumor | very good inhibitory effect against the tumor | no side effects | significantly better inhibitory effect against the tumor | – | – | – | – | – | TGI (tumor inhibition rate) ([8]; 20 mg/kg): 93%; TGI relative to that of Tirabrutinib ([8]; 20 mg/kg): ~2 times
O=C(c1ccc(Oc2ccccc2)cc1Cl)c1c[nH]c2ncnc(N[C@@H]3CC[C@@H](CO)OC3)c12 [ARQ-531, reference compound] | – | 94.2% | – | – | 10.3 mL/min/kg | 81.1% | – | – | – | – | > 2.42 h | 16200 ng·h/mL | 2410 ng/mL | 3.98 h | > 2.42 h | bioavailability [9]: 38%
Nc1nccn2c(C34CCC(CO)(CC3)OC4)nc(-c3ccc(C(=O)Nc4cc(C(F)(F)F)ccn4)cc3)c12 [Compound 118] | – | 77.4% | < 5 nM | < 5 nM | 0.8 mL/min/kg | 64.1% | – | – | – | – | > 2.42 h | 211000 ng·h/mL | 25700 ng/mL | 3.35 h | 1.69 h | inhibitory effect against the tumor compared with ARQ-531 and ibrutinib ([8]; same dose of 10 mg/kg, FIG. 1): significantly better inhibitory effect against the tumor
Nc1nccn2c(C34CCC(CO)(CC3)OC4)nc(-c3ccc(C(F)(F)c4ccccc4)cc3)c12 [Compound 125] | – | 61.2% | < 5 nM | 5 to 20 nM | 17.42 mL/min/kg | 49% | significantly better inhibitory effect against the tumor | very good inhibitory effect against the tumor | no side effects | significantly better inhibitory effect against the tumor | 1.58 h | 8860 ng·h/mL | 1180 ng/mL | 4.19 h | 1.06 h | –
Cc1cc(Nc2ncnc3ccc(NC4=NC(C)(C)CO4)cc23)ccc1Oc1ccn2ncnc2c1 [Tucatinib, reference compound] | – | 28.8% | – | – | 161.3 mL/min/kg | 38.2% | – | – | – | – | 0.53 h | 2270 ng·h/mL | 445 ng/mL | 1.72 h | 0.663 h | brain permeability rate [10]: less than 5%
